# pEC50: −log10 of the molar value.
# Key:
# [1] = Inhibition of HIV1 reverse transcriptase Y181C mutant infected in human MT2 cells assessed as protection against viral infection by MTT assay
# [2] = Inhibition of HIV1 reverse transcriptase K103N/Y181C double mutant infected in human MT2 cells assessed as protection against viral infection by MTT assay
SMILES,pEC50 [1],pEC50 [2]
Cc1c(Oc2ccccc2OCCn2ccc(=O)[nH]c2=O)cc(Cl)c2ccc(C#N)cc12,7.24,–
N#Cc1ccc2c(Cl)cc(Oc3ccccc3OCCn3ccc(=O)[nH]c3=O)cc2c1,6.05,6.05
N#Cc1ccc2ccc(Oc3ccccc3OCCn3ccc(=O)[nH]c3=O)cc2c1,5.59,5.40
CCCc1cc(Oc2ccccc2OCCn2ccc(=O)[nH]c2=O)c(C)c2cc(C#N)ccc12,6.20,6.00
Cc1c(Oc2ccc(F)cc2OCCn2ccc(=O)[nH]c2=O)cc(F)c2ccc(C#N)cc12,7.51,6.01
Cc1c(Oc2ccc(F)cc2OCCn2ccc(=O)[nH]c2=O)cc(Cl)c2ccc(C#N)cc12,7.57,6.30
N#Cc1ccc2cc(Oc3ccccc3OCCn3ccc(=O)[nH]c3=O)ccc2c1,< 7.00,5.25
N#Cc1cc2c(Oc3ccc(F)cc3OCCn3ccc(=O)[nH]c3=O)cc(F)cn2c1,6.60,8.00
Cc1cc2ccc(C#N)cc2c(C)c1Oc1ccccc1OCCn1ccc(=O)[nH]c1=O,< 7.00,5.77
Cc1c(Oc2ccccc2OCCn2ccc(=O)[nH]c2=O)c(C)c2cc(C#N)ccc2c1C,–,6.10
N#Cc1ccc2c(Cl)cc(Oc3ccc(F)cc3OCCn3ccc(=O)[nH]c3=O)cc2c1,5.96,5.39
Cc1cc(Oc2ccc(F)cc2OCCn2ccc(=O)[nH]c2=O)c(F)c2cc(C#N)ccc12,5.92,5.42
Cc1cc(Oc2ccc(F)cc2OCCn2ccc(=O)[nH]c2=O)c(C)c2cc(C#N)ccc12,7.55,6.39
Cc1c(Oc2ccc(Cl)cc2OCCn2ccc(=O)[nH]c2=O)cc(F)c2ccc(C#N)cc12,6.48,< 7.00
N#Cc1ccc2c(F)cc(Oc3ccc(F)cc3OCCn3ccc(=O)[nH]c3=O)c(Cl)c2c1,7.14,5.80
CCOc1cc(Oc2ccccc2OCCn2ccc(=O)[nH]c2=O)c(C)c2cc(C#N)ccc12,6.70,6.10
Cc1c(Oc2ccccc2OCCn2ccc(=O)[nH]c2=O)cc(C(C)C)c2ccc(C#N)cc12,6.40,7.00
Cc1c(Oc2ccccc2OCCn2ccc(=O)[nH]c2=O)cc(CC2CC2)c2ccc(C#N)cc12,6.05,5.92
COc1cc(Oc2ccccc2OCCn2ccc(=O)[nH]c2=O)c(C)c2cc(C#N)ccc12,6.17,5.80
COCc1cc(Oc2ccccc2OCCn2ccc(=O)[nH]c2=O)c(C)c2cc(C#N)ccc12,6.16,6.10
Cc1cc(Oc2ccccc2OCCn2ccc(=O)[nH]c2=O)c(Cl)c2cc(C#N)ccc12,7.38,6.92
Cc1cc(Oc2ccccc2OCCn2ccc(=O)[nH]c2=O)c(C)c2cc(C#N)ccc12,7.21,6.82
Cc1cc(Oc2ccccc2OCCn2ccc(=O)[nH]c2=O)cc2cc(C#N)ccc12,6.10,5.54
CCc1cc(Oc2ccccc2OCCn2ccc(=O)[nH]c2=O)c(C)c2cc(C#N)ccc12,6.82,6.52
N#Cc1ccc2c(F)cc(Oc3ccccc3OCCn3ccc(=O)[nH]c3=O)c(Cl)c2c1,7.05,6.51
Cc1c(Oc2ccccc2OCCn2ccc(=O)[nH]c2=O)cc(F)c2ccc(C#N)cc12,7.22,6.05
N#Cc1ccc2ccc(Oc3ccc(F)cc3OCCn3ccc(=O)[nH]c3=O)cc2c1,5.92,5.03

# Source: BindingDB's records for doi:10.1021/acsmedchemlett.6b00390 (Yale University, 2016)
